Measurements from patent US9937115B2, “Oral care compositions with improved flavor” (priority 2010, dated 2018).
Where two headings read alike, the source gives them in different places.

Biological target: T1, TRPA1 receptor (Homo sapiens, UniProt O75762)
T1 construct: expressed in transfected cells; host or cells: HEK cell line
Assay: cell-based
Parameters: activation: dose or concentration left out as unconfirmed
Experimental: The term “TRPA1 activator” as used herein refers to any component which at a concentration of 1 mM gives a calcium flux count of at least 1000 counts above the background level of calcium present in the cell according to the FLIPR method as discussed herein. The term “count” is defined as the change in fluorescence of the transfected cell lines due to the influx of calcium across the cell membrane, which reacts with the calcium sensitive dye present within the cells.
In order to select TRPA1 agonists that would be preferred for reducing off-tasting chemical components found in oral care compositions, calcium flux receptor activity on the TRPA1 was utilized as the criteria for selection of actives. With allyl isothiocyanate as the TRPA1 positive control, molecules that directly activated the TRPA1 receptor were screened in dimethylsulfoxide (DMSO). Pure molecules of each material were dissolved in DMSO at a concentration of 100 micormolar and then added to an HEK cell line containing the TRPA1 receptor. If they are TRPA1 agonists, they will cause a calcium flux in the cell which fluoresces and may then be measured using a FLIPR machine.

[1] = HEK293, percentage of the control (allyl isothiocyanate) calcium count, material dissolved in DMSO at 100 micromolar, HEK cells with TRPA1, direct addition, read-out: TRPA1 Direct addition
[2] = HEK293, percentage of the control (allyl isothiocyanate) calcium count, material dissolved in DMSO at 100 micromolar, HEK cells with TRPA1, pre-incubation, read-out: TRPA1 Pre-incubation
[3] = HEK293, read-out: TRPA1 Direct addition
[4] = HEK293, read-out: TRPA1 Pre-incubation
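For TRPA1 Pre-incubation in this document: values above 100 mean more active than the control.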

T1 sequence (O75762 whole entry): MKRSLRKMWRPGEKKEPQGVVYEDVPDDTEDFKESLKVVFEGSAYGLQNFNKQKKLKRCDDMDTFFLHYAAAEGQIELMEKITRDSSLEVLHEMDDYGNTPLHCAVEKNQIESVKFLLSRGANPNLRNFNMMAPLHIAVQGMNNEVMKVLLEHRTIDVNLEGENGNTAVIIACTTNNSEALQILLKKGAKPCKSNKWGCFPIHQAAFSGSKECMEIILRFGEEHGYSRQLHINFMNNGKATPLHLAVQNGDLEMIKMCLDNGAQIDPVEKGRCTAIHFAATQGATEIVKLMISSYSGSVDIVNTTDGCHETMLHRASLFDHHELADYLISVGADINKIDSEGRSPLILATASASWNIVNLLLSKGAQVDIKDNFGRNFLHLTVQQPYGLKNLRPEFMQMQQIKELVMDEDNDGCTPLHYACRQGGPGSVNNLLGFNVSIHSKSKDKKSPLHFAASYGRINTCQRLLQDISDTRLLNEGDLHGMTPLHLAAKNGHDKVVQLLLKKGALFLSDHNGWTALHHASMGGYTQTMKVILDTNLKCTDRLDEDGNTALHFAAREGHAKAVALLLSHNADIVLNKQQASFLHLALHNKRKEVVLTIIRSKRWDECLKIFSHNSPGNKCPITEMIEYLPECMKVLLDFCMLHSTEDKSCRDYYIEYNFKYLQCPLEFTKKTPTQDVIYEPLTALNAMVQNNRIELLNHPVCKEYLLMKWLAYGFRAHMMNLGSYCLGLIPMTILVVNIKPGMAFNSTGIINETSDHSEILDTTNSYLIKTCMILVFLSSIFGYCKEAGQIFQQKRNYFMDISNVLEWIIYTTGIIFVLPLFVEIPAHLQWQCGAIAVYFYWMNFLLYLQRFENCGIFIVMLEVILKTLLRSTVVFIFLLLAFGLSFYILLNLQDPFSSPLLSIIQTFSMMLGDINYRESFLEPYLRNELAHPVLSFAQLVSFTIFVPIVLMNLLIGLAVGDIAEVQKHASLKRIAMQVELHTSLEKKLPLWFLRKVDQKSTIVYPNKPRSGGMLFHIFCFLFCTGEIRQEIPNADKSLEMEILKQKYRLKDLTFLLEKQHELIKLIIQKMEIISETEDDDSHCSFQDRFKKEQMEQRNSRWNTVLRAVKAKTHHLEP

SMILES | activation at 100 µM [1] [%] | activation [2] [%] | further results
CCCCCCOC(C)=O [Hexyl Acetate] | -0.01 | 49.1 | 
CCCCCCO [Hexyl Alcohol] | -0.22 | 66.2 | 
CCCCCCOC(=O)CCCCC [Hexyl Hexanoate] | 0.07 | 67.4 | 
CCCCCCOC(=O)CC [Hexyl Propionate] | -15.9 | 78.9 | 
CCCCCCOC(=O)C(C)CC (centres unmarked) [Hexyl-2-Methylbutyrate] | -0.38 | 67.1 | 
CC(=O)OCCC(C)C [Isoamyl Acetate] | 0.07 | 41 | 
CC(C)CCO [Isoamyl Alcohol] |  |  | activation [3]: -0.15%; activation [4]: 70.9%
CC(C)CCOC(=O)CC(C)C [Isoamyl Isovalerate] | 0.18 | 59.6 | 
CC(=O)OCC(C)C [Isobutyl Acetate] | -0.23 | 95.7 | 
CCCCCC(=O)OCC(C)C [Isobutyl Hexanoate] | -17.1 | 53.1 | 
CC/C=C\CC1=C(C)CCC1=O [Jasmone] | 46.5 | 51.6 | 
CCCCCCCCCCCC(=O)O [Lauric Acid] | -2.82 | 96 | 
CCCCCCCCCCCCO [Lauryl Alcohol] | -0.86 | 50.5 | 
C=CC(C)(O)CCC=C(C)C (centres unmarked) [Linalool] | -1.58 | 44.8 | 
C=CC(C)(CCC=C(C)C)OC(C)=O (centres unmarked) [Linalyl Acetate] | -0.9 | 77.2 | 
COc1cccc(OC)c1 [M-Dimethoxybenzene] | -0.59 | 80.6 | 
CC(O)C(=O)[O-].CC(O)C(=O)[O-].[Mg+2] (centres unmarked) [Magnesium Lactate] |  |  | TRPA1 Direct addition: −4.49%; TRPA1 Pre-incubation: 58.12%
Cc1occc(=O)c1O [Maltol] | -2.79 | 102 | 
CCCCCCCCCCO [Material 1-Decanol, 1-Decanol] | -1.41 | 59.8 | 
CCCCCCCC(C)=O [Material 2-Nonanone, 2-Nonanone] | 0.36 | 77.2 | 

SMILES | activation at 100 µM [1] [%] | activation [2] [%] | further results
CCCCCCC(C)O (centres unmarked) [Material 2-Octanol, 2-Octanol] | -14.1 | 55.3 | 
CCCCCCC(C)=O [Material 2-Octanone, 2-Octanone] | -17.1 | 93.3 | 
CCCC(C)=O [Material 2-Pentanone, 2-Pentanone] | 0.73 | 90.1 | 
CCCCCCCCCC(C)=O [Material 2-Undecanone, 2-Undecanone] | 10.7 | 65.9 | 
CCCCC(O)CC (centres unmarked) [Material 3-Heptanol, 3-Heptanol] | -1.06 | 81.3 | 
CC(=O)OC1CC(C)CCC1C(C)C (centres unmarked) [Menthyl Acetate] | -7.24 | 75.8 | 
COC(=O)c1ccccc1N [Methyl Anthranilate] | 69.6 | 1.27 | 
COC(=O)/C=C/c1ccccc1 [Methyl trans-Cinnamate] | -16.8 | 69.4 | 
CCCCCCCCC=O [Nonanal] | -14 | 51.4 | 
CCCCCCCC=O [Octanal] | -11 | 87.9 | 
O=C(OCCc1ccccc1)c1ccccc1O [Phenethyl salicylate] | 7.36 | 110 | 
CC(C)C(=O)OCCOc1ccccc1 [Phenoxyethyl Isobutyrate] | -7.84 | 36.8 | 
OCCc1ccccc1 [Phenyl Ethyl Alcohol] | -4.77 | 55 | 
COC(Cc1ccccc1)OC [Phenylacetaldehyde Dimethyl Acetal] | -14.8 | 81.4 | 
CC(=O)OCCc1ccccc1 [Phenylethyl Acetate] | -22.5 | 93.8 | 
CC(C)C(=O)OCCc1ccccc1 [Phenylethyl Isobutyrate] | -3.56 | 63.9 | 
CC(=O)OCc1ccc2c(c1)OCO2 [Piperonyl Acetate] |  |  | activation at 100 µM [3]: -0.28%; activation at 100 µM [4]: 102%
CCCCCC=CC=CC(=O)OCCC [Propyl 2,4-Decadienoate] | -15.7 | 105 | 
O=C1NS(=O)(=O)c2ccccc21.[Na] [Saccharin Sodium] |  |  | activation [3]: -12.4%; activation [4]: 62.5%
O=Cc1ccccc1O [Salicylaldehyde] | 0.01 | 62.5 | 
